Like-named read-outs stand apart in the source and are kept apart here.

The results in this text go back to patent US20230339949A1, “HETEROCYCLIC SUBSTITUTED FUSED y-CARBOLINE DERIVATIVE, PREPARATION METHOD THEREFOR, INTERMEDIATE THEREOF AND USE THEREOF” (SHUJING BIOPHARMA CO., LTD, priority 2020, published 2023).

Holding throughout (assay type): cell-based
Experiment [1] addresses T1, D2 (CHO-K1/D2L/Gα15 cells) (Homo sapiens, UniProt P14416).
T1 construct: expressed in transfected cells; host or cells: CHO-K1 (CHO-K1/D2L/Gα15, cryopreserved cells)
Kind of experiment: Functional activity test on receptor (cryopreservation cells), calcium FLIPR, D2. The conditions noted are these: for IC50: cryopreserved CHO-K1/D2L/Gα15 cells, calcium fluorescence (FLIPR), antagonist mode vs dopamine EC80; for D2/5-HT2A ratio: ratio of D2 IC50 to 5-HT2A IC50, Test Example 1. The procedure: Test Example 1: Functional Activity Test of Each Compound on Receptor (Cryopreservation Cells) [table] • (1) Cells was taken out from a liquid nitrogen tank, and the tube cap was loosened and inverted to make the liquid nitrogen flow out of the tube, then the cryopreservation tube was tightened. • (2) The cryopreservation tube was shaken rapidly at 37° C. […] • (1) Preparation of 250 mM probenecid solution: 1 mL experimental buffer was added into a tube containing 77 mg powder, and the powder was dissolved by vortex oscillation. • (2) Preparation of 2× fluorescent probe solution: A bottle of fluorescent probe dry powder was taken out to balance to room temperature, and 10 mL of experimental buffer solution and 200 μL of 250 mM probenecid solution were added thereto, and the bottle was scrolled and let stand for 5 minutes to ensure complete dissolution, and then the bottle was scrolled again. • a) Preparation of agonist compound plate (test of EC80): […] The compound to be tested was diluted 3-fold at 10 concentration points using experimental buffer in the compound plate (Greiner-781280), with an initial concentration of 3 μM and 30 μL per well; the antagonistic positive compounds (Spiperone and Ketanserin) were diluted 3-fold at 10 concentration points using experimental buffer, with an initial concentration of 1 μM and 30 μL per well. DMSO concentration was not higher than 3%. • (2) Cell preparation: Cells was taken out from the incubator, and 20 μL of prepared 2× fluorescent probe solution was added thereto, incubated at 37° C. for 50 minutes, then equilibrated at room temperature for 10 minutes. • a) The cell plate and agonist compound plate were put into the instrument, and the program of reading the plate was run. • b) 10 μL was transferred from the agonist compound plate to the cell plate, and fluorescence signal was read. • c) The EC80 of agonist was calculated using Screenworks software and 6×EC80 concentration was prepared for later use.

In experiment [2] the target is T2, 5-HT2A (CHO-K1/5HT2A cells) (Homo sapiens, UniProt P28223).
T2 construct: expressed in transfected cells; host or cells: CHO-K1 (CHO-K1/5HT2A, cryopreserved cells)
T2 sequence (P28223 whole entry): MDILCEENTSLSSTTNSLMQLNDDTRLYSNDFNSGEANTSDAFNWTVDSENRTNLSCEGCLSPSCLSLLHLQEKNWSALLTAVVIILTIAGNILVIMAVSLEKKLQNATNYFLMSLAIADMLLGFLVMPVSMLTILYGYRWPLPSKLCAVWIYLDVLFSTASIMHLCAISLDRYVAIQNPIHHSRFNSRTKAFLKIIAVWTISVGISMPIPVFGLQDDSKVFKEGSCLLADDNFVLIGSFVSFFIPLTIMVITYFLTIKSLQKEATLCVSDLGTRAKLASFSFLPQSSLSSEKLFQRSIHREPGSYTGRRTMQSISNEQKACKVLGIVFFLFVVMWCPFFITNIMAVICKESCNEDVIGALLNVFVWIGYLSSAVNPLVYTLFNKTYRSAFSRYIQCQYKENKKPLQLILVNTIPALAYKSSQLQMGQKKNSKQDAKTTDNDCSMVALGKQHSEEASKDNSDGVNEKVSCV
Kind of experiment: Functional activity test on receptor (cryopreservation cells), calcium FLIPR, 5-HT2A.
Description: • (1) Cells was taken out from a liquid nitrogen tank, and the tube cap was loosened and inverted to make the liquid nitrogen flow out of the tube, then the cryopreservation tube was tightened. • (2) The cryopreservation tube was shaken rapidly at 37° C. […] 20 μL cell suspension was taken out and counted by cell counter. • (6) Dilution according to the specified conditions: 1×10^6 cells /mL, 20 μL cell suspension was added into each well of the cell plate, and finally the concentration of each well is 20,000 cells/well sequentially. • (7) The cell plate was cultured in an incubator with 5% CO2 and at 37° C. for 16-24 hours. […]
• a) The cell plate and agonist compound plate were put into the instrument, and the program of reading the plate was run. • b) 10 μL was transferred from the agonist compound plate to the cell plate, and fluorescence signal was read. • c) The EC80 of agonist was calculated using Screenworks software and 6×EC80 concentration was prepared for later use. […]

For experiment [3], the target named is T3, D2L receptor (Homo sapiens, UniProt P14416).
T3 construct: expressed in transfected cells
T3 sequence (P14416 whole entry): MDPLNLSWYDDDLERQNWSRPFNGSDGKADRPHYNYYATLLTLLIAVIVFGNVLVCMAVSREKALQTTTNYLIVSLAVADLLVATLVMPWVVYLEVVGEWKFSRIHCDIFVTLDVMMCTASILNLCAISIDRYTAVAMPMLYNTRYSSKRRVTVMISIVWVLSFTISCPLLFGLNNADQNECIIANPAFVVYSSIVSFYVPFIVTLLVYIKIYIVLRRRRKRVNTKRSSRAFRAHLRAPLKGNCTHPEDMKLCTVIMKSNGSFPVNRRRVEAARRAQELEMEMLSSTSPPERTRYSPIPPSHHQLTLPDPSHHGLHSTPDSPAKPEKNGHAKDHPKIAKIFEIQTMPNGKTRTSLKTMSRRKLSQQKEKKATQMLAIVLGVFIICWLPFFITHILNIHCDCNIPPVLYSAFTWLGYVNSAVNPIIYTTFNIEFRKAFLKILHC
Kind of experiment: Functional activity test on D2L receptor, cAMP detection (Gi antagonist test). The conditions noted are these: cryopreserved CHO-K1/D2L/Gα15 cells, forskolin + dopamine EC90. An excerpt: (§1) The antagonistic effects of the compounds of the present disclosure on D2L and D2S receptors were detected by cyclic adenosine monophosphate (cAMP) detection method at cell-level.
(§2) • (1) Test compound: compounds of the embodiment of the present disclosure, self-made. • (2) Control compound: dopamine hydrochloride (Sigma, H8502), (+)-Butaclamol hydrochloride (Sigma, D033). • (3) Stable cell line:
(§3) • (1) Preparation of test compounds: the compounds of the embodiments of the present disclosure were respectively dissolved in DMSO to prepare 10 mM mother liquor, and the mother liquor was stored in the nitrogen cabinet for later use. • (2) Preparation of control compound: the control compound was dissolved in DMSO to prepare 10 mM mother liquor, and the mother liquor was repackaged and stored in the refrigerator at −80° C. for later use. • (3) IBMX was dissolved in DMSO to prepare 0.5 M stock solution and the stock solution was cryopreserved at −80° C. • (4) Forskolin was dissolved in DMSO to prepare 1 mM stock solution and the stock solution was cryopreserved at −80° C. for later use. • (5) Experimental buffer: 5× stimulation buffer was diluted to 1× with ddH2O and IBMX with a final concentration of 0.5 mM was added thereto, and the solution was mixed well for later use.
(§4) • (1) Preparation of compounds: the test compounds and positive control compound (+)-Butaclamol hydrochloride were diluted gradient using Bravo in the compound plate (Greiner-781280), and the initial concentration of working solution was 20 μM, and the working solution was diluted at 4-fold for 10 concentrations and centrifuged at 1000 rpm for 1 minute for later use. • (2) Cryopreserved D2L cells: cells was taken out from the liquid nitrogen tank and thaw in a water bath at 37° C., and the cell suspension was transferred to a centrifuge tube containing HBSS buffer, and centrifuged at 750 rpm for 5 minutes.
(§5) Cultured D2S cells: after absorbing the culture medium, the cells were washed with 3 mL PBS, sucked out, digested with 0.05% Trypsin for 3 min, terminated with equal volume of culture medium, transferred to centrifuge tube, and centrifuged at 750 rpm for 5 minutes. After absorbing the liquid, the centrifuge tube was added with a buffer solution containing HBSS and re-suspend, and centrifuged at 750 rpm for 5 minutes. • (3) The supernatant was discarded, and the precipitate was re-suspended with proper amount of experimental buffer, and 20 μL was taken for cell counting. • (4) Appropriate amount of cell suspension was removed, and the cell suspension was diluted to 2×10^5 cells/mL with experimental buffer, and the cell plate (PerkinElmer-6008280) was added with 5 μL/well cell suspension, and centrifuged at 1000 rpm for 1 minute. • (5) 5 μL/well was transferred to the cell plate with Bravo, and the cell plate was centrifuged at 1000 rpm for 1 minute, then the cell plate was closed and incubated at room temperature for 15 minutes. • (6) Forskolin was transferred to the cell plate with Tecan-D300e, and Dopamine hydrochloride with a final concentration of EC90 was transferred to the cell plate. • (7) The cell plate was centrifuged at 1000 rpm for 1 minute, then sealed and incubated at room temperature for 45 minutes. • (8) Standard curve: cAMP with the stock solution concentration of 2848 nM was diluted 4-fold continuously at 8 points according to the initial maximum concentration of 712 nM, and 10 μL/well was taken out to add to the cell plate. • (9) 10 μL/well of detection solution containing cAMP-d2 and Anti-cAMP-Cryptate (diluted with pyrolysis buffer at 1:20) was added to the cell plate, and the cell plate was centrifuged at 1000 rpm for 1 minute, and incubated at room temperature without light for 1 hour. • (10) Detection: the cell plate was centrifuged at 1000 rpm for 1 minute, and the plate was read with Envision (excitation light 340 nm, emission light 620 nm and 665 nm). […]

For experiment [4], the target named is T4, D2S receptor (Homo sapiens, UniProt P14416).
T4 construct: expressed in transfected cells
T4 sequence (P14416 1-414 isoform P14416-2): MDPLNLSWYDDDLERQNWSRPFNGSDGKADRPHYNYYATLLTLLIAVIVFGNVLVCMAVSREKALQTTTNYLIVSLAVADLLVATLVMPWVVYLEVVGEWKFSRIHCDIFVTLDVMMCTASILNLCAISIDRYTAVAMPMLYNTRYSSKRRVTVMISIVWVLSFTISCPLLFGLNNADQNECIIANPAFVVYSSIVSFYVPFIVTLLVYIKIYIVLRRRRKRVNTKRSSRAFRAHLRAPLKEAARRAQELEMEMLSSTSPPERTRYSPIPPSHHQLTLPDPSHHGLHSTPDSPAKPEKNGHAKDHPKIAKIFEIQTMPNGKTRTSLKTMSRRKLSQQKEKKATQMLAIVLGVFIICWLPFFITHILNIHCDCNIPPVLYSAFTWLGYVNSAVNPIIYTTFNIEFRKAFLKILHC
Kind of experiment: Functional activity test on D2S receptor, cAMP detection (Gi antagonist test). The conditions noted are these: cultured HEK293/D2S cells, forskolin + dopamine EC90.
Excerpt: as §1, §2, §3, §4, §5

T1 sequence (P14416 whole entry): as the sequence (P14416 whole entry) above

Turning to `CN1C(=O)CN2c3c1cccc3C1(C)CN(CCCC(=O)c3ccc(F)cc3)CCC21` (stereo not drawn) [Embodiment 1, 8-(4-(4-fluorophenyl)-4-oxobutyl)-3,6b-dimethyl-6b,7,8,9,10,10a-hexahydro-1H-pyrido[3′,4′:4,5]pyrrolo[1,2,3-de]quinoxalin-2(3H)-one], the IC50 – broadly, the concentration that inhibits the measured activity by half – in experiment [1] is 662 nM; in experiment [2] it was 50.5 nM; in experiment [3] it was 20.3 nM; in experiment [4], 95.4 nM. For the same compound, in experiment [1], the D2/5-HT2A ratio stood at 13.09.

`CN1C(=O)CN2c3c1cccc3[C@]1(C)CN(CCCC(=O)c3ccc(F)cc3)CC[C@H]21` [Embodiment 1-A, (6bR,10aS)-8-(4-(4-fluorophenyl)-4-oxobutyl)-3,6b-dimethyl-6b,7,8,9,10,10a-hexahydro-1H-pyrido[3′,4′:4,5]pyrrolo [1,2,3-de]quinoxalin-2(3H)-one]: the figures for the concentration for half-maximal inhibition (IC50) in experiment [3] and in experiment [4] were 30.9 nM and 261 nM, respectively.

As for `CN1CCN2c3c(cccc31)[C@@H]1CN(CCCC(=O)c3ccc(F)cc3)CC[C@@H]12` [ITI-007, Lumateperone, reference compound], the IC50 in experiment [1] worked out at 569 nM; in experiment [2] (cryopreserved CHO-K1/5HT2A cells, calcium fluorescence (FLIPR), antagonist mode vs serotonin EC80, read-out: 5-HT2A IC50) it was 120 nM; in experiment [3], 131 nM; in experiment [4] it was 344 nM. In addition, the D2/5-HT2A ratio in experiment [1] turned out to be 4.75.
